The source of these data is PubChem BioAssay (NCI).

Assay in all cases: inhibition of tumour cell growth, NCI panel, 48 h
Experiment [1] deals with UO-31 renal.
The test system of experiment [2] is PC-3 prostate.
In experiment [3] the test system is MCF7 breast.
The test system of experiment [4] is HS 578T breast.
Experiment [5] has as its system CCRF-CEM leukemia.
In experiment [6] the test system is OVCAR-3 ovarian.
Experiment [7] relates to 786-0 renal.
For experiment [8], the system named is NCI-H522 lung.
Experiment [9] concerns MOLT-4 leukemia.
The test system of experiment [10] is SK-MEL-28 melanoma.
Experiment [11] deals with U251 CNS.
For experiment [12], the system named is MDA-MB-231 breast.
Experiment [13] relates to SR leukemia.
The subject of experiment [14] is IGROV1 ovarian.
For experiment [15], the system named is OVCAR-8 ovarian.
Experiment [16] concerns SF-539 CNS.
Experiment [17] relates to OVCAR-5 ovarian.
The subject of experiment [18] is CAKI-1 renal.
Experiment [19] concerns MALME-3M melanoma.

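Step 1: Grow cells in 96-well plates. Step 2: Expose to compound for 48 hours at 5 concentrations. Step 3: Interpolate endpoints linearly; if unreached, use highest concentration. TGI marks complete inhibition of growth.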

`COc1ccc(NC(=O)CC(=O)N2N=C(N3c4ccccc4Sc4ccccc43)CC2c2ccccc2)cc1` (stereo not drawn): the TGI in experiment [1] is > 100 µM; in experiment [2], > 100 µM; in [3] it was > 100 µM; in [4], 96.9 µM; in experiment [5], > 100 µM; in experiment [6], > 100 µM. The TGI in experiment [7], in experiment [8], in [9], in [10], in experiment [11] and in experiment [12] was > 100 µM each time. Further, the TGI in experiment [13], in experiment [14], in [15], in [16], in [17] and in experiment [18] was > 100 µM each time.
In the case of `N#CC12C(=O)N=C(N)C1(C#N)C(c1ccco1)NC1=C2CCCC1` (stereo not drawn), the TGI in [1], in [2], in experiment [3], in experiment [4], in experiment [5] and in experiment [7] was > 100 µM in each case. In addition, the TGI in [8], in experiment [9], in experiment [10], in [11], in [12] and in [13] was > 100 µM throughout. Further, the TGI in [14], in experiment [15], in experiment [17], in experiment [19] and in experiment [18] was > 100 µM each time.
Regarding `CCOC(=O)c1c(C)nc2c3ccccc3c(C#N)c(C)n12`, the TGI in experiment [1], in experiment [2], in experiment [3], in experiment [4], in experiment [5] and in experiment [6] was > 100 µM in each case. Also, the TGI was 89.3 µM in experiment [8]; > 100 µM in experiment [9]; > 100 µM in [10]; > 100 µM in experiment [11]; 46.5 µM in experiment [12]; > 100 µM in [13]. Besides, the TGI in [14], in experiment [15], in experiment [16], in [17] and in experiment [18] was > 100 µM in each case.
For `CCCCCCOc1ccc(C(=O)NOC)cc1`, the TGI in experiment [1], in experiment [2], in [3], in experiment [4], in [5] and in experiment [6] was > 100 µM each time. The TGI in experiment [7], in [8], in experiment [9], in experiment [10], in experiment [11] and in experiment [12] was > 100 µM each time. For the same compound, the TGI in [13], in experiment [14], in experiment [15], in [16], in experiment [17] and in experiment [18] was > 100 µM each time.
Take `CC1(C)C2CCC1(C)[C@H](n1c(=O)n([C@@H]3CC4CCC3(C)C4(C)C)c(=O)n([C@@H]3CC4CCC3(C)C4(C)C)c1=O)C2`: the TGI in experiment [1], in experiment [2], in experiment [3], in experiment [4], in [6] and in experiment [7] was > 100 µM each time. Moreover, the TGI in [8], in [9], in experiment [10], in experiment [11], in experiment [12] and in experiment [13] was > 100 µM in each case. Moreover, the TGI in experiment [14] is > 100 µM; in [15], > 100 µM; in experiment [16] it was 48.6 µM; in experiment [17], > 100 µM; in experiment [18], > 100 µM.
Regarding `CCC1(CC)C(=O)NN(C(=O)c2ccccc2)C1=O`, the TGI in experiment [1], in experiment [2], in experiment [3], in experiment [4], in experiment [5] and in experiment [6] was > 100 µM throughout. For the same compound, the TGI in experiment [7], in [8], in experiment [9], in [10], in experiment [11] and in experiment [12] was > 100 µM throughout. Also, the TGI in experiment [13], in [14], in experiment [15], in experiment [17], in experiment [19] and in experiment [18] was > 100 µM each time.
With `CCCC(=O)OC1CC(n2cc(F)c(=O)[nH]c2=O)OC1COP(=O)(OCC(Cl)(Cl)Cl)OCC(Cl)(Cl)Cl` (stereo not drawn), the TGI in experiment [1] is > 100 µM; in experiment [2], > 100 µM; in experiment [3], > 100 µM; in experiment [4], 76.3 µM; in experiment [5] it was 94.4 µM; in experiment [6], 38.8 µM. Further, the TGI in [7] is > 100 µM; in experiment [8] it was 16.6 µM; in experiment [9], > 62.1 µM; in [10] it was > 62.4 µM; in experiment [11], > 78.8 µM; in experiment [12], > 100 µM. The TGI in experiment [13] is 99.4 µM; in experiment [14] it was > 31.6 µM; in experiment [15], > 100 µM; in experiment [17] it was > 100 µM; in [19], > 100 µM; in experiment [18] it was > 31.6 µM.
